In patent US12448399B2, “Cereblon-based KRAS degrading PROTACs and uses related thereto” (Arvinas Operations, Inc., priority 2023, dated 2025) one finds Dmax and DC50 data, which are given here for seven compounds.

The test deals with T1, KRas-G12D (Homo sapiens, UniProt P01116, G12D).
T1 construct: insert the HiBiT tag onto the N-terminus of one or more of the endogenous KRas alleles; host or cells: AsPC-1 HiBiT-KRasG12D knock-in clone (one tagged allele, two untagged KRasG12D alleles)
The experiment in a line: HiBiT Degradation Assay (G12D), AsPC-1 HiBiT-KRasG12D cells, 24 hr. The format is cell-based. To be noted: for Dmax: ASPC1, AsPC-1 cells, maximum degradation observed; for DC50: AsPC-1 cells. The method, boiled down: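 Degradation was read after 24 hr compound exposure (0.5% DMSO, 37° C) by Nano-Glo HiBiT lytic luminescence in AsPC-1 cells carrying a HiBiT tag on one of three KRasG12D alleles. Signal relative to DMSO gave DC50 and Dmax by 4-parameter fit; alamar blue fluorescence monitored cytotoxicity.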
For orientation: With HiBiT, luminescence reflects the tagged protein that the partner subunit can reach.

The structures appear in SMILES notation.

T1 sequence (P01116 1-188 isoform P01116-2 G12D): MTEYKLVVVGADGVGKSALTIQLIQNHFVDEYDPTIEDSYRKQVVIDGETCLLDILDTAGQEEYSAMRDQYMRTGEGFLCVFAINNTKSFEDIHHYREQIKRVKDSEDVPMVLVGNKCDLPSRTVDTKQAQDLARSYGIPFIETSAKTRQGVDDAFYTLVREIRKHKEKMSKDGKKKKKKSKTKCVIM

`C#Cc1c(F)ccc2cc(O)cc(-c3ncc4c(N5CC6CCC(C5)N6)nc(OCCN5CCC(CC6CCN(CC7CCN(c8cccc9c8n(C)c(=O)n9C8CCC(=O)NC8=O)CC7)CC6)CC5)nc4c3F)c12` (stereo not drawn) [Compound 133, 3-{4-[4-({4-[(1-{2-[(4-{3,8-diazabicyclo[3.2.1]octan-3-yl}-7-(8-ethynyl-7-fluoro-3-hydroxynaphthalen-1-yl)-8-fluoropyrido[4,3-d]pyrimidin-2-yl)oxy]ethyl}piperidin-4-yl)methyl]piperidin-1-yl}methyl)piperidin-1-yl]-3-methyl-2-oxo-2,3-dihydro-1H-1,3-benzodiazol-1-yl}piperidine-2,6-dione]: the Dmax was more than 70% and the DC50 was less than 5.1 µM. For the compound `C#Cc1c(F)ccc2cc(O)cc(-c3nc(N4CC5CCC(C4)N5)c4cnc(OCCN5CCC6(CC5)CCN(CC5CCN(c7ccc8c(c7)CN(C7CCC(=O)NC7=O)C8=O)CC5)CC6)nc4c3F)c12` (stereo not drawn) [Compound 134], the Dmax is more than 70% and the DC50 was less than 5.1 µM. The compound `C#Cc1c(F)ccc2cc(O)cc(-c3ncc4c(N5CC6CCC(C5)N6)nc(OCCN5CCC6(CC5)CN(CC5CCN(c7cccc8c7CN(C7CCC(=O)NC7=O)C8=O)CC5)C6)nc4c3F)c12` (stereo not drawn) [Compound 135, 3-(4-{4-[(7-{2-[(4-{3,8-diazabicyclo[3.2.1]octan-3-yl}-7-(8-ethynyl-7-fluoro-3-hydroxynaphthalen-1-yl)-8-fluoropyrido[4,3-d]pyrimidin-2-yl)oxy]ethyl}-2,7-diazaspiro[3.5]nonan-2-yl)methyl]piperidin-1-yl}-1-oxo-2,3-dihydro-1H-isoindol-2-yl)piperidine-2,6-dione] registered a DC50 of 0.25 to 1 µM.

The compound `C#Cc1c(F)ccc2cc(O)cc(-c3ncc4c(N5CC6CCC(C5)N6)nc(OCCN5CCC(CN6CCN(CC7CCN(c8cccc9c8CN(C8CCC(=O)NC8=O)C9=O)CC7)CC6)CC5)nc4c3F)c12` (stereo not drawn) [Compound 136, 3-{4-[4-({4-[(1-{2-[(4-{3,8-diazabicyclo[3.2.1]octan-3-yl}-7-(8-ethynyl-7-fluoro-3-hydroxynaphthalen-1-yl)-8-fluoropyrido[4,3-d]pyrimidin-2-yl)oxy]ethyl}piperidin-4-yl)methyl]piperazin-1-yl}methyl)piperidin-1-yl]-1-oxo-2,3-dihydro-1H-isoindol-2-yl}piperidine-2,6-dione] showed a Dmax of more than 70% and a DC50 of less than 5.1 µM.

Take `CCc1c(F)ccc2cc(O)cc(-c3ncc4c(N5CC6CCC(C5)N6)nc(OCCN5CCC(CC6CCN(CC7CCN(c8cccc9c8CN(C8CCC(=O)NC8=O)C9=O)CC7)CC6)CC5)nc4c3F)c12` (stereo not drawn) [Compound 137, 3-{4-[4-({4-[(1-{2-[(4-{3,8-diazabicyclo[3.2.1]octan-3-yl}-7-(8-ethyl-7-fluoro-3-hydroxynaphthalen-1-yl)-8-fluoropyrido[4,3-d]pyrimidin-2-yl)oxy]ethyl}piperidin-4-yl)methyl]piperidin-1-yl}methyl)piperidin-1-yl]-1-oxo-2,3-dihydro-1H-isoindol-2-yl}piperidine-2,6-dione]: the DC50 was less than 5.1 µM.

Compound `C#Cc1c(F)ccc2cc(O)cc(-c3ncc4c(N5CC6CCC(C5)N6)nc(OCCN5CCC(CC6CCN(CC7CCN(c8ccc9c(c8)CN(C8CCC(=O)NC8=O)C9=O)CC7)CC6)CC5)nc4c3F)c12` (stereo not drawn) [Compound 138] registered a Dmax of more than 70% and a DC50 of less than 5.1 µM. The compound `CCc1cccc2cc(O)cc(-c3ncc4c(N5CC6CCC(C5)N6)nc(OC[C@@H]5C[C@@H](OC6CCN(CC7CCN(c8cccc9c8CN(C8CCC(=O)NC8=O)C9=O)CC7)CC6)CN5C)nc4c3F)c12` (stereo partly drawn) [Compound 139, 3-(4-{4-[(4-{[(3R,5S)-5-{[(4-{3,8-diazabicyclo[3.2.1]octan-3-yl}-7-(8-ethyl-3-hydroxynaphthalen-1-yl)-8-fluoropyrido[4,3-d]pyrimidin-2-yl)oxy]methyl}-1-methylpyrrolidin-3-yl]oxy}piperidin-1-yl)methyl]piperidin-1-yl}-1-oxo-2,3-dihydro-1H-isoindol-2-yl)piperidine-2,6-dione] yielded a Dmax of more than 70% and a DC50 of less than 5.1 µM.

What is called Dmax is the largest share of the target that was removed. In general, DC50 refers to the concentration giving 50% degradation. Lower therefore signals a more potent degrader.
